EC50 data for eleven compounds are collected here from ChEMBL document CHEMBL5726211, “SGC stimulators” (2019).

This assay in a line: HEK WC Assay: Human embryonic kidney cells (HEK293), endogenously expressing soluble guanylate cyclase (sGC), were used to evaluate the activity of test compounds. Compounds stimulating the sGC receptor should cause an increase in the intracellular concentration of cGMP. HEK 293 cells were seeded in Dulbecco's Modification of Eagle's Medium supplemented with fetal bovine serum (10% final) and L-glutamine (2 mM final) in a 200 μL volume at a density of 1×10^5 cells/well in a poly-D-lysine coated 96 well flat bottom plate and grown overnight at 37° C. Medium was aspirated and cells were washed with 1× Hank's Buffered Saline Salt Solution (200 μL). Cells were then incubated for 15 minutes at 37° C. with 0.5 mM 3-isobutyl-1-methylxanthine (200 μL). Test article and sodium nitroprusside were then added to the assay mixture (2 μL each) and incubated at 37° C. for 10 minutes. After the 10 minute incubation, the assay mixture was aspirated and 0.1M HCl (200 μL) was added to the cells. The plate was incubated at 4° C. for 30 minutes in the 0.1M HCl to stop the reaction and lysed the cells. The plates were then centrifuged at 1,200 g for 5 minutes at room temperature. Supernatants were collected and transferred to a new flat bottom 96 well plate for analysis. Vehicle controls were carried out using DMSO (1%). A known sGC stimulator, BAY 41-2272, was used as the positive control. Samples were diluted with an equal volume of 1 M Ammonium Acetate (pH 7) to neutralize samples for better chromatography. A 2×cGMP standard curve was prepared in 0.1 M HCl and then diluted with an equal volume of 1 M Ammonium Acetate, with the following final concentrations in nM: 1024, 512, 256, 128, 64, 32, 16, 8, 4, 2, 1. cGMP concentrations were determined from each sample using the LC/MS conditions (Table 2 below) and calculated standard curve. EC50 values were calculated from concentration-response curves generated with GraphPad Prism Software. The assay is classed as cell-based.
The EC50 is the concentration that produces a half-maximal response. On to `Nc1nc(-c2cc(-c3ccon3)n(Cc3ccccc3F)n2)ncc1NC(=O)c1cscn1`, for which the 50% effective concentration (EC50) is less than 20 µM.

Take `CN(C)c1ccccc1C(=O)Nc1cnc(-c2cc(-c3ccon3)n(Cc3ccccc3F)n2)nc1N`: the EC50 is 40 to 60 µM.

Consider `COc1ccc(C(=O)Nc2cnc(-c3cc(-c4ccon4)n(Cc4ccccc4F)n3)nc2N)cc1`, for which the EC50 is less than 20 µM.

As for `[C-]#[N+]c1cc(-c2ccccn2)nn1Cc1ccccc1F`, the EC50 is 30 µM.

For `CC(C)(F)C(=O)Nc1cnc(-c2cc(-c3ccon3)n(Cc3ccccc3F)n2)nc1N`, the EC50 was less than 20 µM.

In the case of `Nc1nc(-c2cc(-c3ccon3)n(Cc3ccccc3F)n2)ncc1NC(=O)C1CC2C=CC1C2` (stereo unspecified), the EC50 was less than 20 µM.

Regarding `Nc1nc(-c2cc(-c3ncco3)n(Cc3ccccc3F)n2)ncc1NC(=O)C1(C(F)(F)F)CC1`, the EC50 is less than 20 µM.

In the case of `Nc1nc(-c2cc(-c3ccon3)n(Cc3ccccc3F)n2)ncc1NC(=O)c1cccc(OC(F)(F)F)c1`, the EC50 is less than 20 µM.

As for `[C-]#[N+]C1(C(=O)Nc2cnc(-c3cc(-c4ccon4)n(Cc4ccccc4F)n3)nc2N)CC1`, the EC50 is less than 20 µM.

Regarding `Cc1cccc(C)c1C(=O)Nc1cnc(-c2cc(-c3ccon3)n(Cc3ccccc3F)n2)nc1N`, the EC50 was less than 20 µM.

On to `CCOC(=O)c1cnc(-c2cc(-c3ccon3)n(Cc3ccccc3F)n2)nc1O`, for which the EC50 was 20 to 40 µM.
